Key:
[1] = molecular target: T1, Human P2X7 (hP2X7) receptor (Homo sapiens, UniProt Q99572); assay: Dye assay: BzATP-induced Yo-Pro-1 uptake in HEK293 cells stably expressing hP2X7; type: cell-based; details: 90 min incubation
T1 construct: myc-His (from the pcDNA3.1/myc-HisA vector); expressed in transfected cells
T1 sequence (Q99572 1-595): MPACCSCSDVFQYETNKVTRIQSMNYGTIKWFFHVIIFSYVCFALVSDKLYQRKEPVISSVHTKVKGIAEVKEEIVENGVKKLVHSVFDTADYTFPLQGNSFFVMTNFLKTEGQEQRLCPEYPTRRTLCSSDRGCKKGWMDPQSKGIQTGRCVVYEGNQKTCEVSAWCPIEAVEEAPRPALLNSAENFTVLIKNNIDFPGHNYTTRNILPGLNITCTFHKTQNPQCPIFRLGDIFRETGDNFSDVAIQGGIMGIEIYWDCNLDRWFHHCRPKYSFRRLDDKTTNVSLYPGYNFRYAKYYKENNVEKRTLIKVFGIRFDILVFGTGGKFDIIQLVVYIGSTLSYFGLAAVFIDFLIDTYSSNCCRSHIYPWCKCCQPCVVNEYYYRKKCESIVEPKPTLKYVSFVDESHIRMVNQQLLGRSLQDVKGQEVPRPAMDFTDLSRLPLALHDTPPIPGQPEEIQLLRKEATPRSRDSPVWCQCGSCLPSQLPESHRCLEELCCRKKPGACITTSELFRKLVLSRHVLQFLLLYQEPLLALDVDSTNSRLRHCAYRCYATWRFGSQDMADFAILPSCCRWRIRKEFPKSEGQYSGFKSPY
How it was run: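 HEK293 cells stably expressing cloned human P2X7 (595 aa) were preincubated 30 min with compound, then given 2 μM Yo-Pro-1 and 0.1 mM BzATP (final) for 90 min. Dye uptake read by fluorescence (ex 485/em 535 nm); IC50 derived from % inhibition versus log concentration.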

[2] = tested on: IL-1β in supernatants of peripheral blood mononuclear cells; assay: IL-1β assay: BzATP- or ATP-induced IL-1β release from LPS-treated human peripheral blood mononuclear cells; type: cell-based; details: 2 h; IL-1β in supernatants of LPS-treated human PBMC; BzATP (1 mM) or ATP (5 mM), 120 min
Procedure: Human whole blood from healthy volunteers was diluted with equal volume of saline and peripheral blood mononuclear cells were collected by using a Limphoprep tube (Daiichi Pure Chemicals), washed with physiological saline and seeded onto a 96-well plate with a medium containing 1-10 ng/mL LPS (SIGMA). 30 minutes later, the cells were treated with varying concentrations of various compounds and incubated for 30 minutes. Then, the cells were treated with BzATP (final concentration 1 mM) or ATP (final concentration 5 mM) and incubated for 120 minutes. The cells were centrifugated to collect supernatents, and the concentration of IL-1β in supernatants were determined by IL-1β HTRF kit (CIS biointernational). The % inhibition rates were calculated and plotted against the logarithms of the concentrations to determine IC50.

[3] = BzATP (0.1 mM)-induced Yo-Pro-1 uptake, compounds 30 min pre-treatment
[4] = BzATP 0.1 mM, Yo-Pro-1 2 μM, 30 min pre-treatment

IC50 [1, 3] [nM]	IC50 [2] [nM]	IC50 [1, 4] [nM]	SMILES
3.7	4.3		C[C@@H]1[C@H]2C[C@@H](C[C@H]1Nc1cnn(CC(=O)NCc3ccncc3N(C)C)c(=O)c1Cl)C2(C)C [compound 277]
10	38		CCC(NC(=O)Cn1ncc(N[C@@H]2C[C@@H]3C[C@@H](C3(C)C)[C@]2(C)O)c(Br)c1=O)c1ccncc1 (stereo partly shown) [compound 358]
	27	1.7	C[C@@H]1[C@H]2C[C@@H](C[C@H]1Nc1cnn(CC(=O)NCc3ccncc3S(C)(=O)=O)c(=O)c1Cl)C2(C)C [compound 442]
	36	3.2	C[C@@H]1[C@H]2C[C@@H](C[C@H]1Nc1cnn(CC(=O)NCc3ccnnc3N(C)C)c(=O)c1Cl)C2(C)C [compound 435]
3.9	39		CC1C(Nc2cnn(CC(=O)NCc3ccnnc3)c(=O)c2Br)CC2CC1C2(C)C (stereo not shown) [compound 214]
6.3	19		CC(NC(=O)Cn1ncc(N[C@@H]2C[C@@H]3C[C@H]([C@H]2C)C3(C)C)c(Br)c1=O)c1ccncc1 (stereo partly shown) [compound 39]
	51	6.2	C[C@@H]1[C@H]2C[C@@H](C[C@H]1Nc1cnn(CC(=O)NCc3ccnnc3Cl)c(=O)c1Cl)C2(C)C [compound 433]
2.8	3.1		C[C@@H]1[C@H]2C[C@@H](C[C@H]1Nc1cnn(CC(=O)N[C@H](C)c3ccncc3)c(=O)c1Cl)C2(C)C [compound 230]
4.3	33		CCC(NC(=O)Cn1ncc(N[C@@H]2C[C@@H]3C[C@H]([C@H]2C)C3(C)C)c(Br)c1=O)c1ccncc1 (stereo partly shown) [compound 171]
12	38		COc1cnccc1CNC(=O)Cn1ncc(N[C@@H]2C[C@@H]3C[C@H]([C@H]2C)C3(C)C)c(Br)c1=O [compound 216]
1.4	3.3		CC(NC(=O)Cn1ncc(N[C@@H]2C[C@@H]3C[C@H]([C@H]2C)C3(C)C)c(Cl)c1=O)c1ccncc1Cl (stereo partly shown) [compound 264]
4.1	82		CCN(CC)c1ccc(C(=O)Cn2ncc(N[C@@H]3C[C@@H]4C[C@H]([C@H]3C)C4(C)C)c(Br)c2=O)cc1 [compound 84]
21	61		C[C@@H]1[C@H]2C[C@@H](C[C@H]1Nc1cnn(CCNCc3ccncc3)c(=O)c1Br)C2(C)C [Synthetic Example 47, 4-Bromo-2-[2-(pyridin-4-ylmethylamino)ethyl]-5-[(1R,2R,3R,5S)-2,6,6-trimethylbicyclo[3.1.1]hept-3-ylamino]pyridazin-3(2H)-one]
3.5	47		C[C@@H]1[C@H]2C[C@@H](C[C@H]1Nc1cnn(CC(=O)NCc3ccncc3)c(=O)c1Br)C2(C)C [compound 9]
	17	2.1	Cc1cnncc1CNC(=O)Cn1ncc(N[C@@H]2C[C@@H]3C[C@H]([C@H]2C)C3(C)C)c(Cl)c1=O [compound 432]
1.5	1.5		CC(NC(=O)Cn1ncc(NC2C3CCCC2CCC3)c(Cl)c1=O)c1ccncc1Cl (stereo not shown) [compound 378]
34			O=C(Cn1ncc(NC23CC4CC(CC2C4)C3)c(Br)c1=O)NCc1ccnnc1 [compound 345]
84			C[C@@H]1[C@H]2C[C@@H](C[C@H]1Nc1cnn(CC(=O)NCC3CCCCC3)c(=O)c1Br)C2(C)C [compound 208]
2.7			CC(NC(=O)Cn1ncc(N[C@@H]2C[C@@H]3C[C@@H](C3(C)C)[C@]2(C)O)c(Cl)c1=O)c1ccnc(F)c1 (stereo partly shown) [compound 365]
3.2			CC(NC(=O)Cn1ncc(NC2C3CCCC2CCC3)c(Br)c1=O)c1ccnnc1 (stereo not shown) [compound 372]
		14	C[C@@H]1[C@H]2C[C@@H](C[C@H]1Nc1cnn(CC(=O)NCc3ccnc(F)c3Cl)c(=O)c1Cl)C2(C)C [compound 448]
22			C[C@@H]1[C@H]2C[C@@H](C[C@H]1Nc1cnn(CC(=O)NCc3ccnc4ccccc34)c(=O)c1Br)C2(C)C [compound 167]
39			CCC(NC(=O)Cn1ncc(NC2C[C@@H]3CC([C@H]2C)C3(C)C)c(OC)c1=O)c1ccncc1 (stereo partly shown) [Synthetic Example 385]
8.9	40		O=C(Cn1ncc(NC2C3CCCC2CCC3)c(Br)c1=O)NCc1ccncc1 (stereo not shown) [compound 325]
74			C[C@@H]1[C@H]2C[C@@H](C[C@H]1Nc1cnn(CC(=O)NC(C(=O)O)c3ccccc3)c(=O)c1Br)C2(C)C (stereo partly drawn) [Synthetic Example 403, ({[5-Bromo-6-oxo-4-{[(1R,2R,3R,5S)-2,6,6-trimethylbicyclo[3.1.1]hept-3-yl]amino}pyridazin-1(6H)-yl]acetyl}amino)(phenyl)acetic Acid]
130			C[C@@H]1[C@H]2C[C@@H](C[C@H]1Nc1cnn(CC(=O)NCc3ccc(NS(C)(=O)=O)cc3)c(=O)c1Cl)C2(C)C [compound 252]

— patent US8440666B2, “Pyridazinone compounds and P2X7 receptor inhibitors” (Nissan Chemical Industries, Ltd., priority 2007, dated 2013)
